Data: patent US9895328B2, “Calcium formate as a supplement to prevent neural tube defects” (BOARD OF REGENTS, THE UNIVERSITY OF TEXAS SYSTEM, priority 2013, dated 2018)
Like-named read-outs stand apart in the source and are kept apart here.

Tests used:
Amt null embryos = settings: maternal supplementation; cited from earlier work
[1] = test system: neural tube defects (NTDs); settings: periconceptional intake of supplemental folic acid, some populations; cited from earlier work
Folr1^−/− embryos = settings: maternal supplementation, dose dependent ("tunable"); cited from earlier work
Mthfd1l^z/z embryos [2] = settings: for Crown-rump length: E15.5
Description: Mice. All protocols used within this study were approved by the Institutional Animal Care and Use Committee of The University of Texas at Austin and conform to the National Institutes of Health Guide for the Care and Use of Laboratory Animals. All mice were maintained on a C57Bl/6 genetic background. Mice harboring a floxed conditional knockout cassette between exons 4 and 6 of Mthfd1l were obtained from the Wellcome Trust Sanger Institute (EUCOMM ID 37226). Mice carrying the floxed Mthfd1l allele were mated to mice expressing Cre recombinase under control of the E2a promoter (E2a-Cre) (Lakso M, et al. (1996) Proc. Natl. Acad. Sci. U.S.A 93:5860-5865) to generate heterozygous Mthfd1l^z/+ embryos lacking exon 5 and the neomycin resistance cassette (FIG. 2A). All mice were given ad libitum access to water and standard mouse chow (LabDiet 5K67).
Maternal Supplementation with Calcium Formate. Mthfd1l^z/+ matings were set up in a cage equipped with a water bottle containing 0.0096M, 0.019M, 0.056M or 0.096M calcium formate. The females had access to the supplemented water at least one day before observation of the plug. These concentrations were calculated to deliver 250, 500, 1500 or 2500 mg calcium formate/kg/day, respectively, based on an average water intake of 5 mL per day for a 25 g C57BL/6 mouse (Green EL ed (1966) Biology of the Laboratory Mouse (Dover Publications, Inc., New York), 2nd Ed, p 706). The effect of formate supplementation was analyzed by a two-tailed T-test for crown-rump length
Pregnant dams were administered calculated doses of 250-2500 mg/kg/day.

Mthfd1l^z/z embryos [3] = assay: Maternal supplementation with sodium formate, Mthfd1l^z/+ matings; type: in vivo, mouse
Method: Maternal Supplementation with Sodium Formate.
Because deletion of Mthfd1l is expected to result in loss of mitochondrial formate production, experiments were conducted to determine if maternal formate supplementation would improve development of Mthfd1l^z/z embryos. Pregnant dams were given ad libitum access to water containing sodium formate to achieve a calculated dose of 5000 or 7500 mg sodium formate/kg/day; controls were given water without formate. […] When dams were supplemented with 5000 mg/kg/day sodium formate, 4 Mthfd1l^+/+, 14 Mthfd1l^z/+, and 8 Mthfd1l^z/z embryos were obtained from 3 litters between E15.5-18.5. […] Next, the morphology of E10.5-E15.5 embryos from dams supplemented with 7500 mg/kg/day sodium formate was examined, obtaining 10 Mthfd1l^+/+ embryos, 31 Mthfd1l^z/+ embryos and 14 Mthfd1l^z/z embryos from 6 litters, again conforming to the expected Mendelian ratio (p=0.48). […] Importantly, 6 of the 14 Mthfd1l^z/z embryos were dissected from dams at E13.5 or E15.5, whereas no surviving Mthfd1l^z/z embryos were observed after E12.5 from unsupplemented dams. While supplemented versus non-supplemented embryos were not compared after E12.5 due to lethality of the unsupplemented embryos, formate supplementation partially rescued the growth defect in Mthfd1l^z/z embryos (FIGS. 5A, 5B). […] Supplementation had no significant effect on crown-rump length of wild-type embryos (5.9±0.2 mm).

[4] = 250 mg/kg, of 6 Mthfd1l^z/z embryos
[5] = 250 mg/kg, of 6 Mthfd1l^z/z embryos (Table 2)
[6] = 250 mg/kg, of 6 Mthfd1l^z/z embryos (Table 3)
[7] = 500 mg/kg, of 11 Mthfd1l^z/z embryos
[8] = 500 mg/kg, of 11 Mthfd1l^z/z embryos (Table 2)
[9] = 500 mg/kg, of 11 Mthfd1l^z/z embryos (Table 3)
[10] = 1500 mg/kg, Mthfd1l^z/z embryos
[11] = 1500 mg/kg, of 13 Mthfd1l^z/z embryos
[12] = 1500 mg/kg, of 13 Mthfd1l^z/z embryos (Table 2)
[13] = 1500 mg/kg, of 13 Mthfd1l^z/z embryos (Table 3)
[14] = 2500 mg/kg, Mthfd1l^z/z embryos
[15] = 2500 mg/kg, of 15 Mthfd1l^z/z embryos
[16] = 2500 mg/kg, of 15 Mthfd1l^z/z embryos (Table 2)
[17] = 2500 mg/kg, of 15 Mthfd1l^z/z embryos (Table 3)
[18] = 3500 mg/kg, Mthfd1l^z/z embryos
[19] = 3500 mg/kg, of 10 Mthfd1l^z/z embryos
[20] = 3500 mg/kg, of 10 Mthfd1l^z/z embryos (Table 2)
[21] = 3500 mg/kg, of 10 Mthfd1l^z/z embryos (Table 3)
[22] = dams 5000 mg/kg/day sodium formate in water, 3 litters, E15.5-18.5, distribution vs Mendelian p=0.50
[23] = dams 7500 mg/kg/day sodium formate, 6 litters, E10.5-E15.5, vs Mendelian p=0.48
[24] = embryos lacking Mthfd1l, maternal supplementation

## Nc1nc2ncc(CNc3ccc(C(=O)NC(CCC(=O)O)C(=O)O)cc3)nc2c(=O)[nH]1 (stereo in doubt) [folic acid, pteroyl-L-glutamic acid]
Amt null embryos
  neurulation in Amt null embryos: no effect
[1]
  reduction of the incidence of NTDs: ≤ 70%

## Nc1nc(=O)c2c([nH]1)NCC(CNc1ccc(C(=O)N[C@@H](CCC(=O)O)C(=O)O)cc1)N2C=O (mixture of isomers) [5-formyl-THF]
Folr1^−/− embryos
  rescue of Folr1 knockout embryonic folate deficiency: can be rescued

## O=C[O-].O=C[O-].[Ca+2] [calcium formate]
Mthfd1l^z/z embryos [2]; 250 mg/kg, Mthfd1l^z/z embryos
  NTD, phenotype as a percentage: 0.1667 percentage
  no defect observed, phenotype as a percentage: 0 percentage
  orofacial defect and NTD, phenotype as a percentage: 0.1667 percentage
  orofacial defect, phenotype as a percentage: 0.6667 percentage
Mthfd1l^z/z embryos [2]; [4]
  no defect observed (number of embryos): 0
  orofacial defect and NTD (number of embryos): 1
Mthfd1l^z/z embryos [2]; [5]
  number with NTD: 2
  number with facial defect: 4
Mthfd1l^z/z embryos [2]; [6]
  NTD (number of embryos): 1
  orofacial defect (number of embryos): 4
Mthfd1l^z/z embryos [2]; 500 mg/kg, Mthfd1l^z/z embryos
  NTD, phenotype as a percentage: 0 percentage
  no defect observed, phenotype as a percentage: 0.2727 percentage
  orofacial defect and NTD, phenotype as a percentage: 0 percentage
  orofacial defect, phenotype as a percentage: 0.7273 percentage
Mthfd1l^z/z embryos [2]; [7]
  no defect observed (number of embryos): 3
  orofacial defect and NTD (number of embryos): 0
Mthfd1l^z/z embryos [2]; [8]
  number with NTD: 0
  number with facial defect: 8
Mthfd1l^z/z embryos [2]; [9]
  NTD (number of embryos): 0
  orofacial defect (number of embryos): 8
Mthfd1l^z/z embryos [2]; [10]
  NTD, phenotype as a percentage: 0.07692 percentage
  no defect observed, phenotype as a percentage: 0.6154 percentage
  orofacial defect and NTD, phenotype as a percentage: 0 percentage
  orofacial defect, phenotype as a percentage: 0.3077 percentage
Mthfd1l^z/z embryos [2]; [11]
  no defect observed (number of embryos): 8
  orofacial defect and NTD (number of embryos): 0
Mthfd1l^z/z embryos [2]; [12]
  number with NTD: 1
  number with facial defect: 4
Mthfd1l^z/z embryos [2]; [13]
  NTD (number of embryos): 1
  orofacial defect (number of embryos): 4
Mthfd1l^z/z embryos [2]; [14]
  NTD, phenotype as a percentage: 0.3333 percentage
  no defect observed, phenotype as a percentage: 0.6667 percentage
  orofacial defect and NTD, phenotype as a percentage: 0 percentage
  orofacial defect, phenotype as a percentage: 0 percentage
Mthfd1l^z/z embryos [2]; [15]
  no defect observed (number of embryos): 10
  orofacial defect and NTD (number of embryos): 0
Mthfd1l^z/z embryos [2]; [16]
  number with NTD: 5
  number with facial defect: 0
Mthfd1l^z/z embryos [2]; [17]
  NTD (number of embryos): 5
  orofacial defect (number of embryos): 0
Mthfd1l^z/z embryos [2]; [18]
  NTD, phenotype as a percentage: 0.1 percentage
  no defect observed, phenotype as a percentage: 0.6 percentage
  orofacial defect and NTD, phenotype as a percentage: 0 percentage
  orofacial defect, phenotype as a percentage: 0.3 percentage
Mthfd1l^z/z embryos [2]; [19]
  no defect observed (number of embryos): 6
  orofacial defect and NTD (number of embryos): 0
Mthfd1l^z/z embryos [2]; [20]
  number with NTD: 1
  number with facial defect: 3
Mthfd1l^z/z embryos [2]; [21]
  NTD (number of embryos): 1
  orofacial defect (number of embryos): 3
Mthfd1l^z/z embryos [2]; 250-2500 mg/kg/day, embryos dissected at E15.5
  growth of Mthfd1l^z/z embryos with increasing maternal intake: dose-response effect
Mthfd1l^z/z embryos [2]; Mthfd1l^+/+ embryos, 250 mg/kg calcium formate to dams
  Crown-rump length: 1.39 + 0.1 cm
Mthfd1l^z/z embryos [2]; Mthfd1l^+/+ embryos, 500 mg/kg calcium formate to dams
  Crown-rump length: 1.32 + 0.17 cm
Mthfd1l^z/z embryos [2]; Mthfd1l^+/+ embryos, 1500 mg/kg calcium formate to dams
  Crown-rump length: 1.46 + 0.2 cm
Mthfd1l^z/z embryos [2]; Mthfd1l^+/+ embryos, 2500 mg/kg calcium formate to dams
  Crown-rump length: 1.43 + 0.07 cm
Mthfd1l^z/z embryos [2]; Mthfd1l^+/+ embryos, 3500 mg/kg calcium formate to dams
  Crown-rump length: 1.34 + 0.2 cm
Mthfd1l^z/z embryos [2]; Mthfd1l^z/+ embryos, 250 mg/kg calcium formate to dams
  Crown-rump length: 1.38 + 0.1 cm
Mthfd1l^z/z embryos [2]; Mthfd1l^z/+ embryos, 500 mg/kg calcium formate to dams
  Crown-rump length: 1.36 + 0.21 cm
Mthfd1l^z/z embryos [2]; Mthfd1l^z/+ embryos, 1500 mg/kg calcium formate to dams
  Crown-rump length: 1.46 + 0.1 cm
Mthfd1l^z/z embryos [2]; Mthfd1l^z/+ embryos, 2500 mg/kg calcium formate to dams
  Crown-rump length: 1.39 + 0.09 cm
Mthfd1l^z/z embryos [2]; Mthfd1l^z/+ embryos, 3500 mg/kg calcium formate to dams
  Crown-rump length: 1.33 + 0.1 cm
Mthfd1l^z/z embryos [2]; Mthfd1l^z/z embryos, 250 mg/kg calcium formate to dams
  Crown-rump length: 1.05 ± 0.1 cm
Mthfd1l^z/z embryos [2]; Mthfd1l^z/z embryos, 500 mg/kg calcium formate to dams
  Crown-rump length: 1.03 ± 0.06 cm
Mthfd1l^z/z embryos [2]; Mthfd1l^z/z embryos, 1500 mg/kg calcium formate to dams
  Crown-rump length: 1.17 ± 0.13 cm
Mthfd1l^z/z embryos [2]; Mthfd1l^z/z embryos, 2500 mg/kg calcium formate to dams
  Crown-rump length: 1.20 ± 0.04 cm
Mthfd1l^z/z embryos [2]; Mthfd1l^z/z embryos, 3500 mg/kg calcium formate to dams
  Crown-rump length: 1.1 ± 0.2 cm
Mthfd1l^z/z embryos [2]; Table 3 and FIG. 6, mouse model
  NTD and orofacial defect phenotypes: improves NTD and orofacial defect phenotypes in a dose-dependent manner

## O=C[O-].[Na+] [sodium formate]
Mthfd1l^z/z embryos [3]; 7500 mg sodium formate/kg/day, Mthfd1l^z/z embryos at E11.5 vs unsupplemented dams
  growth of embryos (words, FIG. 5): improved growth
Mthfd1l^z/z embryos [3]; 7500 mg/kg/day sodium formate, of 14 Mthfd1l^z/z embryos
  number of Mthfd1l^z/z embryos with exencephaly: 3
Mthfd1l^z/z embryos [3]; 7500 mg/kg/day sodium formate, of 14 Mthfd1l^z/z embryos, none survive after E12.5 unsupplemented
  number of Mthfd1l^z/z embryos dissected at E13.5 or E15.5 (survival past E12.5): 6
Mthfd1l^z/z embryos [3]; 7500 mg/kg/day sodium formate, of 14 Mthfd1l^z/z embryos, p=0.028 vs unsupplemented nulls
  number of Mthfd1l^z/z embryos with normal neural tube closure: 11
Mthfd1l^z/z embryos [3]; [22]
  number of Mthfd1l^+/+ embryos obtained: 4
  number of Mthfd1l^z/+ embryos obtained: 14
Mthfd1l^z/z embryos [3]; dams 5000 mg/kg/day sodium formate in water, 3 litters, E15.5-18.5, distribution vs Mendelian p=0.50, 0 from unsupplemented dams
  number of Mthfd1l^z/z embryos obtained: 8
Mthfd1l^z/z embryos [3]; [23]
  number of Mthfd1l^+/+ embryos obtained: 10
  number of Mthfd1l^z/+ embryos obtained: 31
  number of Mthfd1l^z/z embryos obtained: 14
Mthfd1l^z/z embryos [3]; [24]
  growth defect: partially rescue the growth defect
  incidence of NTDs: decrease the incidence of NTDs
Mthfd1l^z/z embryos [3]; formate supplemented Mthfd1l^z/z E11.5 embryos, p<0.01 vs unsupplemented (3.6±0.3)
  Crown-rump length: 5.0±0.1 mm
Mthfd1l^z/z embryos [3]; wild-type embryos, supplementation had no significant effect
  Crown-rump length: 5.9±0.2 mm

## CSCC[C@H](N)C(=O)O [methionine]
Amt null embryos
  neurulation in Amt null embryos: significantly improves neurulation
